Measurements from patent US20100323012A1, “Pharmaceutical Compositions Comprising NEP-Inhibitors, Inhibitors of the Endogenous Endothelin Producing System and Diuretics” (Solvay Pharmaceuticals GmbH, priority 2005, published 2010).

Tested on: spontaneously hypertensive rat
Assay: Telemetric monitoring of blood pressure and heart rate in spontaneously hypertensive rats, compounds given via drinking water
Format: in vivo
Settings: male SHR; for effect on blood pressure (in words): 3 weeks of treatment via drinking water; for DBP (diastolic blood pressure), effect in relation to baseline, group mean of 24 hour means / HR (heart rate), effect in relation to baseline, group mean of 24 hour means / SBP (systolic blood pressure), effect in relation to baseline, group mean of 24 hour means: day 23 (after 3 weeks of treatment) minus baseline (day 3), via drinking water, intended 10 mg/kg/day hydrochlorothiazide, 100 mg/kg/day daglutril, n = 5 per group
From the text: Male spontaneously hypertensive rats (=SHR, insulin resistant strain from Charles River; aged 6 months) were equipped with telemetry transmitters for continuous monitoring of blood pressure and heart rate (TA11PA-C40, DSI, USA). Telemetry transmitters for continuous monitoring of blood pressure, heart rate and locomotor activity (TA11PA-C40, Data Sciences, USA) were implanted intraabdominally under inhalative halothane anesthesia. A midline abdominal incision was made, and the abdominal aorta was visualized by removal of retroperitoneal fat and connective tissue. A ligature was placed caudal of the renal arteries, the aorta was punctured with a 22G needle, and the catheter was advanced into the aorta. The entry point was sealed with tissue adhesive (Vetbond, 3M, USA), the ligature was removed, and the abdominal incision was closed. Measurements of aortic pressure were taken every 5 minutes (=min) for 4 seconds (=s) each at a sampling rate of 500 Hz, and were corrected for the corresponding ambient pressure (ambient pressure monitor, C11PR, Data Sciences, USA).
After 3 days of monitoring under baseline (untreated) conditions, animals received daglutril via their drinking water. The intended daily dose was 100 mg/kg/day of daglutril. The concentration in drinking water was adjusted once per week, resulting in an average drug intake of 98 mg/kg/day.
In a second experiment, rats were divided into two treatment groups receiving hydrochlorothiazide or hydrochlorothiazide+daglutril. Compounds were administered via the drinking water, and daily drug intake was measured by weighing the water bottles thrice weekly. Intended daily doses were 10 mg/kg/day of hydrochlorothiazide plus, in the combination group, 100 mg/kg/day of daglutril.
Concentrations of hydrochlorothiazide and daglutril in the drinking water were adjusted once per week, in order to ensure the intended daily intake of 10 and 100 mg/kg, respectively. The average daily water intake amounted to 57 and 46 ml/kg in the hydrochlorothiazide and hydrochlorothiazide+daglutril group, respectively, resulting in the uptake of 9.5 mg/kg/day of hydrochlorothiazide in the hydrochlorothiazide group, and 9.4 mg/kg/day of hydrochlorothiazide and 94.4 mg/kg/day of daglutril in the combination group.
The blood pressure, heart rate and activity values, sampled in 5 min intervals by the Dataquest™ system, were used for calculation of individual 24 hour means. These 24 hour means were exported to Excel, and group mean values of systolic blood pressure (=SBP), diastolic blood pressure (=DBP), heart rate (=HR), and locomotor activity (=ACT) were calculated for the daglutril, hydrochlorothiazide and the hydrochlorothiazide+daglutril groups. For the statistical analysis, a baseline value (pre) was calculated from the last day prior to compound application (day 3), and effects of daglutril, hydrochlorothiazide and hydrochlorothiazide+daglutril were calculated in relation to this baseline value (day 23, i.e. after 3 weeks of treatment, minus baseline value). The statistical comparison was done by using univariate ANOVA at an error level of P<0.05.

CCOC(=O)C(CCc1ccccc1)CC1(C(=O)NC2CCc3ccccc3N(CC(=O)O)C2=O)CCCC1 (centres unmarked) [daglutril, 2-[1-(1-carboxymethyl-2-oxo-2,3,4,5-tetrahydro-1H-benzo[b]azepin-3-ylcarbamoyI)-cyclopentylmethyl]-4-phenyl-butyric acid ethyl ester]
effect on blood pressure (in words): no effect | DBP (diastolic blood pressure), effect in relation to baseline, group mean of 24 hour means: 2.0 mmHg | HR (heart rate), effect in relation to baseline, group mean of 24 hour means: -6.0 min⁻¹ | SBP (systolic blood pressure), effect in relation to baseline, group mean of 24 hour means: −0.3 mmHg

NS(=O)(=O)c1cc2c(cc1Cl)NCNS2(=O)=O [HCTZ, hydrochlorothiazide]
effect on blood pressure (in words): moderate decrease | DBP (diastolic blood pressure), effect in relation to baseline, group mean of 24 hour means: −7.7 mmHg | HR (heart rate), effect in relation to baseline, group mean of 24 hour means: -4.5 min⁻¹ | SBP (systolic blood pressure), effect in relation to baseline, group mean of 24 hour means: −11.3 mmHg
